Test results published in US20220151982A1, “CANNABINOID COMPOSITIONS AND USE THEREOF” (priority 2019, published 2022).
“And” between values parts separate entries of the source, which are not always exact repeats. Equal values may be shown once. Read-outs that look alike come from different tables or passages of the source.

Columns and labels:
[1] = system: Methicillin-resistant Staphylococcus aureus (MRSA); test: MRSA killing by CFU counting after 4 h incubation; conditions: for Percentage death of MRSA cells, Antibiotics alone: antibiotic at MIC value; for Percentage death of MRSA cells, Antibiotics + CBD (565 μM): antibiotic at MIC value + CBD 565 μM
NAR cell's efflux pumps = test: Doxorubicin efflux into the media from pre-treated resistant cells; format: cell-based; conditions: NAR pre-treated with sub-lethal Doxorubicin; media with vs without cannabinoid, 5 minutes to 24 hours
Method: A resistant ovarian cancer cell line (NAR) was pre-treated with sub-lethal concentrations of Doxorubicin (Dox), and then incubated in media with and without THCa or CBD for time periods ranging from 5 minutes to 24 hours (a total of 12 time points were measured). The ability of the cells to efflux Dox into the media was measured and compared between the cells grown in the presence and absence of THCa (FIG. 8A) or CBD (FIG. 8B).

[2] = system: resistant pancreatic cancer cells (PANC-1); format: cell-based; conditions: 4 h exposure, XTT after 72 h
Method: (§1) A resistant pancreatic cancer cells line (PANC-1) was exposed to fluorouracil (5-FU), Tetrahydrocannabinolic acid (THCa) and combination thereof. The cells were exposed to the treatment agents for 4 hours, after which the media was replaced. Cell survival/death levels were measured after 72 hours by XTT. The percent of cell survival was determined as the absorbance signal with subtracted background (media only) and normalized by mock. Each experimental combination was performed in quadruplicate/pentaplicate.

[3] = system: resistant ovarian cancer cells (NAR); format: cell-based; conditions: 4 h exposure, XTT after 72 h
Method: as §1, with “A non-resistant ovarian cancer cells lines (OVCAR8) and a” for “A”, “resistant ovarian” for “resistant pancreatic”, “line (NAR) were” for “line (PANC-1) was”, “to various concentrations of Doxorubicin (Dox),” for “to fluorouracil (5-FU),”, “and combinations” for “and combination”
(§2) A non-resistant ovarian cancer cells line (OVCAR8) and a resistant ovarian cancer cell line (NAR) were exposed to various concentrations of Doxorubicin (Dox), Cannabidiol (CBD) and combinations thereof. The cells were exposed to the treatment agents for 4 hours, after which the media was replaced. Cell survival/death levels were measured after 72 hours by XTT. The percent of cell survival was determined as the absorbance signal with subtracted background (media only) and normalized by mock. Each experimental combination was performed in quadruplicate/pentaplicate.
(§3) The resistant ovarian cancer cells line (NAR) was exposed to various concentrations of Taxol (Paclitaxel), Tetrahydrocannabinolic acid (THCa) and combinations thereof. The cells were exposed to the treatment agents for 4 hours, after which the media was replaced. Cell survival/death levels were measured after 72 hours by XTT. The percent of cell survival was determined as the absorbance signal with subtracted background (media only) and normalized by mock. Each experimental combination was performed in quadruplicate/pentaplicate.
as §3, with “Cisplatin,” for “Taxol (Paclitaxel),”

[4] = system: lung cancer resistant cells (NCI-H69/LX4); format: cell-based; conditions: 4 h exposure, XTT after 72 h
Method: as §1, with “A multi-drug” for “A”, “small cell lung” for “pancreatic”, “(NCI-H69/LX4)” for “(PANC-1)”, “Vincristine,” for “fluorouracil (5-FU),”

[5] = system: resistant ovarian cancer cells (NAR); format: cell-based; conditions: CBN 674 or 270 μM added to Dox
[6] = system: non-resistant ovarian cancer cells (OVCAR8); test: XTT cell survival/death, non-resistant ovarian cancer cells; format: cell-based; conditions: Doxorubicin 30 μM alone, 4 h exposure, XTT after 72 h
Method: as §2, with “cancer cells lines (OVCAR8) and” for “cancer cells line (OVCAR8) and”, “ovarian cancer cells line (NAR)” for “ovarian cancer cell line (NAR)”, “Doxorubicin (Dox), Tetrahydrocannabinolic acid (THCa) and combinations” for “Doxorubicin (Dox), Cannabidiol (CBD) and combinations”
as §2

CN(C)[C@@H]1C(O)=C(C(N)=O)C(=O)[C@@]2(O)C(O)=C3C(=O)c4c(O)cccc4[C@@](C)(O)[C@H]3C[C@@H]12 [Tetracycline]
Percentage death of MRSA cells, Antibiotics alone ([1]; Table 1, 4 hours): 7%
Percentage death of MRSA cells, Antibiotics + CBD (565 μM) ([1]; Table 2, 4 hours): 42%
Percentage death of MRSA cells, Antibiotics + CBD (565 μM) ([1]; Table 2, 4 hours, listed as tetracycline): 42%
Percentage death of MRSA cells, Antibiotics alone ([1]; Table 2, 4 hours): 7%

CCCCCc1cc2c(c(O)c1C(=O)O)[C@@H]1C=C(C)CC[C@H]1C(C)(C)O2 [THCa, tetrahydrocannabinolic acid]
decrease of Dox efflux levels (NAR cell's efflux pumps): ~50%
Percentage death of MRSA cells, THCa (88 μM) alone ([1]; Table 1, THCa 88 μM without antibiotic, 4 hours): 6%
cell death ([2]; THCa 247 μM + 5-FU 2 μM): 77%
cell death ([2]; THCa 247 μM alone): 8%
cell death ([3]; THCa 86 μM + Doxorubicin 30 μM): 64%
cell death ([3]; THCa 172 μM + Doxorubicin 30 μM): 86%
cell death ([3]; THCa 247 μM + Cisplatin 115 μM): 94%
cell death ([3]; THCa 247 μM + Taxol 50 μM): 94%
cell death ([3]; THCa 247 μM alone): 20% and 18%
cell death ([4]; THCa 247 μM + Vincristine 10 μM): 95%
cell death ([4]; THCa 247 μM alone): 12%

CCCCCc1cc(O)c2c(c1)OC(C)(C)c1ccc(C)cc1-2 [CBN, Cannabinol]
effect on Dox toxicity (enhancement of cell death) [5]: did not significantly enhance cell death

COc1cccc2c1C(=O)c1c(O)c3c(c(O)c1C2=O)C[C@@](O)(C(=O)CO)C[C@@H]3O[C@H]1C[C@H](N)[C@H](O)[C@H](C)O1 [Doxorubicin]
cell death [6]: 94%
cell death ([3]; Doxorubicin 30 μM alone): 16% and 20%
cell death ([3]; Doxorubicin 30 μM alone, listed as Dox): 20%

O=C(N[C@H](CO)[C@H](O)c1ccc([N+](=O)[O-])cc1)C(Cl)Cl [Chloramphenicol]
Percentage death of MRSA cells, Antibiotics alone ([1]; Table 1, 4 hours): 12%
Percentage death of MRSA cells, Antibiotics + CBD (565 μM) ([1]; Table 2, 4 hours): 58%
Percentage death of MRSA cells, Antibiotics alone ([1]; Table 2, 4 hours): 12%

CC(=O)O[C@H]1C(=O)[C@@]2(C)[C@H]([C@H](OC(=O)c3ccccc3)[C@]3(O)C[C@H](OC(=O)[C@H](O)[C@@H](NC(=O)c4ccccc4)c4ccccc4)C(C)=C1C3(C)C)[C@]1(OC(C)=O)CO[C@@H]1C[C@@H]2O [Taxol, Paclitaxel]
cell death ([3]; Taxol 50 μM alone): 23%

Gentamycin
Percentage death of MRSA cells, Antibiotics + THCa (88 μM) [1]: 85%
Percentage death of MRSA cells, Antibiotics alone ([1]; Table 1, 4 hours): 15%
Percentage death of MRSA cells, Antibiotics + CBD (565 μM) ([1]; Table 2, 4 hours): 58%
Percentage death of MRSA cells, Antibiotics alone ([1]; Table 2, 4 hours): 15%

O=c1[nH]cc(F)c(=O)[nH]1 [5-FU, fluorouracil]
cell death ([2]; 5-FU 2 μM alone): 14%

C=C(C)[C@@H]1CCC(C)=C[C@H]1c1c(O)cc(CCCCC)cc1O [CBD, 2-[(6R)-3-Methyl-6-prop-1-en-2-yl-lcyclohex-2-envyl]-5pentylbenzene-1,3-diol]
decrease of Dox efflux levels (NAR cell's efflux pumps): ~40%
Percentage death of MRSA cells, CBD (565 μM) alone ([1]; Table 2, CBD 565 μM without antibiotic, 4 hours): 9%
cell death ([3]; CBD 283 μM + Doxorubicin 30 μM): 35%
cell death ([3]; CBD 565 μM + Doxorubicin 30 μM): 75%

CN[C@H](CC(C)C)C(=O)N[C@H]1C(=O)N[C@@H](CC(N)=O)C(=O)N[C@H]2C(=O)N[C@H]3C(=O)N[C@H](C(=O)N[C@H](C(=O)O)c4cc(O)cc(O)c4-c4cc3ccc4O)[C@H](O)c3ccc(c(Cl)c3)Oc3cc2cc(c3O[C@@H]2O[C@H](CO)[C@@H](O)[C@H](O)[C@H]2O[C@H]2C[C@](C)(N)[C@H](O)[C@H](C)O2)Oc2ccc(cc2Cl)[C@H]1O [Vancomycin]
Percentage death of MRSA cells, Antibiotics alone ([1]; Table 1, 4 hours): 8%
Percentage death of MRSA cells, Antibiotics + CBD (565 μM) ([1]; Table 2, 4 hours): 61%
Percentage death of MRSA cells, Antibiotics alone ([1]; Table 2, 4 hours): 8%

CO[C@H]1/C=C/O[C@@]2(C)Oc3c(C)c(O)c4c(O)c(c(/C=N/N5CCN(C)CC5)c(O)c4c3C2=O)NC(=O)/C(C)=C\C=C\[C@H](C)[C@H](O)[C@@H](C)[C@@H](O)[C@@H](C)[C@H](OC(C)=O)[C@@H]1C [Rifampicin]
Percentage death of MRSA cells, Antibiotics alone ([1]; Table 1, 4 hours): 17%
Percentage death of MRSA cells, Antibiotics + CBD (565 μM) ([1]; Table 2, 4 hours): 73%
Percentage death of MRSA cells, Antibiotics + CBD (565 μM) ([1]; Table 2, 4 hours, listed as rifampicin): 73%
Percentage death of MRSA cells, Antibiotics alone ([1]; Table 2, 4 hours): 17%

CC[C@]1(O)C[C@H]2CN(CCc3c([nH]c4ccccc34)[C@@](C(=O)OC)(c3cc4c(cc3OC)N(C=O)[C@H]3[C@@](O)(C(=O)OC)[C@H](OC(C)=O)[C@]5(CC)C=CCN6CC[C@]43[C@@H]65)C2)C1 [Vincristine]
cell death ([4]; Vincristine 10 μM alone): 17%

O=C(O)c1cn(C2CC2)c2cc(N3CCNCC3)c(F)cc2c1=O [Ciprofloxacin]
Percentage death of MRSA cells, Antibiotics alone ([1]; Table 1, 4 hours): 14%
Percentage death of MRSA cells, Antibiotics + CBD (565 μM) ([1]; Table 2, 4 hours): 54%
Percentage death of MRSA cells, Antibiotics alone ([1]; Table 2, 4 hours): 14%

N.N.[Cl][Pt][Cl] [Cisplatin]
cell death ([3]; Cisplatin 115 μM alone): 12%
